Counter-ions that a name gives are not always drawn.
How the values were obtained:
[1] = Water solubility of amonafide salts; type: physicochemical; conditions: as compared to a monohydrochloride salt
Neutrophils = assay: Myelosuppression (reduction of neutrophils) by NAT-2 genotype in patients; type: in vivo, human
Protocol: Thirty-two (32) patients were treated amonafide dihydrochloride. Sixteen (16) were male and sixteen (16) were female. The mean age was 65 years. The dose schedule was days 1, 8, 15 and thereafter every 28 days. The dosages ranged from 300 to 500 mg/m^2 in a dose escalation studied to determine dose limiting toxicity (DLT).
Patients were genotyped to determine their NAT-2 (N-acetyl transferase) genotype. See D. W. Hein, et al., “Molecular Genetics and Epidemiology of the NAT1 and NAT2 Acetylation Polymorphisms,” Cancer Epidemiology, Biomarkers & Prevention Vol. 9, 29-42, January 2000.

[2] = test system: white blood cell count (WBC); conditions: patients; cited from earlier work

Row | SMILES | solubility in water [1] | Average % Reduction of Neutrophils (Neutrophils; I/R (Fast) genotype, 18 patients, dose 400 mg/m2) [%] | Average % Reduction of Neutrophils (Neutrophils; I/R (Fast) genotype, 18 patients, dose 400 mg/m2, listed as amonafide) [%] | Average % Reduction of Neutrophils (Neutrophils; S (Slow) genotype, 14 patients, dose 500 mg/m2) [%] | effect on white blood cell count [2]
1 | CN(C)CCN1C(=O)c2cccc3cc(N)cc(c23)C1=O [amonafide dihydrochloride, 5-amino-2-[(dimethylamine)ethyl]-1H-benz[de-]isoquinoline-1,3-(2H)-dione] | more soluble in water | 78 | ~80 | 55 | –
2 | CC(=O)Nc1cc2c3c(cccc3c1)C(=O)N(CCN(C)C)C2=O [acetyl amonafide, N-acetyl amonafide] | – | – | – | – | induce leukocytopenia and, in particular, granulocytopenia

Reference: patent US20110262383A1, “Naphthalimide Dosing by N-Acetyl Transferase Genotyping” (ChemGenex Pharmaceuticals, Inc., priority 2004, published 2011)
